# Numbers after ± are expanded uncertainties.
# Conditions: Liquid, Capillary tube (Ostwald / Ubbelohde) method
smiles,measurement,setting,value
C1CCCCC1 [cyclohexane],viscosity,"303.1 K, 2930 kPa",0.852 ± 0.029 mPa·s
same,viscosity,"305.1 K, 960 kPa",0.801 ± 0.026 mPa·s
same,viscosity,"305.2 K, 140 kPa",0.796 ± 0.027 mPa·s
same,viscosity,"305.2 K, 1960 kPa",0.819 ± 0.027 mPa·s
same,viscosity,"305.2 K, 3940 kPa",0.839 ± 0.028 mPa·s
same,viscosity,"313.8 K, 2920 kPa",0.721 ± 0.025 mPa·s
same,viscosity,"323.7 K, 150 kPa",0.601 ± 0.02 mPa·s
same,viscosity,"323.7 K, 1990 kPa",0.614 ± 0.02 mPa·s
same,viscosity,"323.7 K, 4000 kPa",0.631 ± 0.021 mPa·s
same,viscosity,"324 K, 1020 kPa",0.616 ± 0.021 mPa·s
same,viscosity,"348.9 K, 140 kPa",0.432 ± 0.015 mPa·s
same,viscosity,"348.9 K, 990 kPa",0.44 ± 0.015 mPa·s
same,viscosity,"348.9 K, 2080 kPa",0.445 ± 0.014 mPa·s
same,viscosity,"348.9 K, 3030 kPa",0.451 ± 0.015 mPa·s
same,viscosity,"348.9 K, 3930 kPa",0.449 ± 0.015 mPa·s
same,viscosity,"373.7 K, 970 kPa",0.331 ± 0.011 mPa·s
same,viscosity,"373.7 K, 2020 kPa",0.336 ± 0.011 mPa·s
same,viscosity,"373.7 K, 2930 kPa",0.34 ± 0.011 mPa·s
same,viscosity,"373.7 K, 3960 kPa",0.346 ± 0.011 mPa·s
same,viscosity,"398.1 K, 2000 kPa",0.262 ± 0.0085 mPa·s
same,viscosity,"398.1 K, 4010 kPa",0.27 ± 0.0088 mPa·s
same,viscosity,"398.2 K, 960 kPa",0.258 ± 0.0084 mPa·s
same,viscosity,"398.2 K, 2940 kPa",0.266 ± 0.0087 mPa·s
same,viscosity,"422.4 K, 960 kPa",0.204 ± 0.0066 mPa·s
same,viscosity,"422.5 K, 1970 kPa",0.209 ± 0.0068 mPa·s
same,viscosity,"422.5 K, 2960 kPa",0.214 ± 0.007 mPa·s
same,viscosity,"422.5 K, 3960 kPa",0.216 ± 0.007 mPa·s
same,viscosity,"447.5 K, 1010 kPa",0.165 ± 0.0054 mPa·s
same,viscosity,"447.6 K, 2040 kPa",0.165 ± 0.0055 mPa·s
same,viscosity,"447.7 K, 3010 kPa",0.17 ± 0.0056 mPa·s
same,viscosity,"447.7 K, 4000 kPa",0.174 ± 0.0057 mPa·s
same,viscosity,"473.3 K, 3000 kPa",0.138 ± 0.0046 mPa·s
same,viscosity,"473.4 K, 1930 kPa",0.131 ± 0.0044 mPa·s
same,viscosity,"473.4 K, 3930 kPa",0.139 ± 0.0046 mPa·s
same,viscosity,"497.9 K, 3050 kPa",0.106 ± 0.0036 mPa·s
same,viscosity,"498.1 K, 3980 kPa",0.11 ± 0.0037 mPa·s
same,viscosity,"498.2 K, 3020 kPa",0.106 ± 0.0036 mPa·s
same,viscosity,"498.3 K, 4020 kPa",0.11 ± 0.0037 mPa·s
same,viscosity,"523 K, 3050 kPa",0.0791 ± 0.0028 mPa·s
same,viscosity,"523 K, 3970 kPa",0.0856 ± 0.003 mPa·s
CCCCCCCCCC [decane],viscosity,"303.1 K, 3970 kPa",0.828 ± 0.028 mPa·s
same,viscosity,"303.2 K, 960 kPa",0.8 ± 0.026 mPa·s
same,viscosity,"303.2 K, 3010 kPa",0.814 ± 0.027 mPa·s
same,viscosity,"303.3 K, 150 kPa",0.788 ± 0.026 mPa·s
same,viscosity,"303.3 K, 2000 kPa",0.808 ± 0.027 mPa·s
same,viscosity,"323.7 K, 1120 kPa",0.617 ± 0.02 mPa·s
same,viscosity,"323.7 K, 1990 kPa",0.628 ± 0.021 mPa·s
same,viscosity,"323.7 K, 3010 kPa",0.625 ± 0.02 mPa·s
same,viscosity,"323.8 K, 140 kPa",0.606 ± 0.02 mPa·s
same,viscosity,"323.8 K, 3960 kPa",0.631 ± 0.021 mPa·s
same,viscosity,"348.9 K, 140 kPa",0.459 ± 0.015 mPa·s
same,viscosity,"348.9 K, 1050 kPa",0.465 ± 0.015 mPa·s
same,viscosity,"348.9 K, 2090 kPa",0.469 ± 0.015 mPa·s
same,viscosity,"348.9 K, 2930 kPa",0.475 ± 0.015 mPa·s
same,viscosity,"348.9 K, 3950 kPa",0.481 ± 0.016 mPa·s
same,viscosity,"373.7 K, 130 kPa",0.365 ± 0.012 mPa·s
same,viscosity,"373.7 K, 960 kPa",0.368 ± 0.012 mPa·s
same,viscosity,"373.7 K, 2040 kPa",0.373 ± 0.012 mPa·s
same,viscosity,"373.7 K, 2890 kPa",0.376 ± 0.012 mPa·s
same,viscosity,"373.7 K, 3960 kPa",0.381 ± 0.013 mPa·s
same,viscosity,"398.1 K, 3940 kPa",0.312 ± 0.01 mPa·s
same,viscosity,"398.2 K, 140 kPa",0.295 ± 0.0097 mPa·s
same,viscosity,"398.2 K, 990 kPa",0.299 ± 0.0097 mPa·s
same,viscosity,"398.2 K, 2030 kPa",0.304 ± 0.0098 mPa·s
same,viscosity,"398.2 K, 2910 kPa",0.309 ± 0.01 mPa·s
same,viscosity,"423.4 K, 2960 kPa",0.254 ± 0.0083 mPa·s
same,viscosity,"423.4 K, 3940 kPa",0.258 ± 0.0084 mPa·s
same,viscosity,"423.5 K, 950 kPa",0.247 ± 0.008 mPa·s
same,viscosity,"423.5 K, 1060 kPa",0.246 ± 0.008 mPa·s
same,viscosity,"423.5 K, 2110 kPa",0.251 ± 0.0081 mPa·s
same,viscosity,"447.7 K, 1060 kPa",0.206 ± 0.0067 mPa·s
same,viscosity,"447.7 K, 1990 kPa",0.209 ± 0.0068 mPa·s
same,viscosity,"447.7 K, 2960 kPa",0.212 ± 0.0069 mPa·s
same,viscosity,"447.7 K, 3990 kPa",0.216 ± 0.007 mPa·s
same,viscosity,"473.4 K, 2150 kPa",0.174 ± 0.0057 mPa·s
same,viscosity,"473.4 K, 2920 kPa",0.177 ± 0.0058 mPa·s
same,viscosity,"473.4 K, 3990 kPa",0.18 ± 0.0059 mPa·s
same,viscosity,"498.2 K, 3890 kPa",0.152 ± 0.005 mPa·s
same,viscosity,"498.3 K, 2090 kPa",0.146 ± 0.0048 mPa·s
same,viscosity,"498.3 K, 3060 kPa",0.15 ± 0.0049 mPa·s
same,viscosity,"523 K, 3970 kPa",0.129 ± 0.0043 mPa·s
same,viscosity,"523.1 K, 1060 kPa",0.118 ± 0.004 mPa·s
same,viscosity,"523.1 K, 1940 kPa",0.122 ± 0.0041 mPa·s
same,viscosity,"523.1 K, 3000 kPa",0.126 ± 0.0042 mPa·s
same,viscosity,"547.9 K, 1070 kPa",0.0957 ± 0.0033 mPa·s
same,viscosity,"547.9 K, 1980 kPa",0.1 ± 0.0034 mPa·s
same,viscosity,"547.9 K, 2940 kPa",0.105 ± 0.0035 mPa·s
same,viscosity,"547.9 K, 4000 kPa",0.108 ± 0.0036 mPa·s
same,viscosity,"573.6 K, 1930 kPa",0.0796 ± 0.0028 mPa·s
same,viscosity,"573.7 K, 2970 kPa",0.0855 ± 0.003 mPa·s
same,viscosity,"573.8 K, 4030 kPa",0.091 ± 0.0031 mPa·s
same,viscosity,"598.4 K, 4020 kPa",0.0745 ± 0.0026 mPa·s
same,viscosity,"598.5 K, 2090 kPa",0.0619 ± 0.0023 mPa·s
same,viscosity,"598.5 K, 2980 kPa",0.0696 ± 0.0025 mPa·s

# Reference: the NIST ThermoML archive (doi:10.1021/acs.jced.5b00270)
